Paper PMC4482662, “Engineered Trehalose Permeable to Mammalian Cells” (PLoS ONE, 2015)

How the values were obtained:
[1] = tested on: rat hepatocytes; assay: Mitochondrial membrane potential (JC-1, Mito-Tracker Red) after loading; assay type: cell-based; conditions: after 6 h incubation
Procedure: To determine mitochondrial function after incubation with acetylated trehalose, we used JC-1 for membrane potential and Mito-Tracker Red CMRox for imaging following the manufacturers’ protocols. The hepatocytes were seeded in fibronectin-coated plates and were allowed to attach and spread for 24–48 h. Then, the cells were incubated with 30 mM 6-O-Ac-Tre and 25 mM HEPES for 6 h, after which the wells were washed with excess medium and the cells incubated for 24 h before the assay. Immediately upon the start of incubation with staining agents, the plates were placed in the fluorescent plate reader and the fluorescence was read for 30 min at 579/599 nm excitation/emission wavelengths for Mito-Tracker and at 485 nm excitation and 530/590 nm emission wavelengths for the green and red channels respectively of JC-1. For imaging mitochondria, the hepatocytes were cultured on collagen-coated glass cover slips for 48 h, and were stained with Mito-Tracker Red 24 h after the incubation with 6-O-Ac-Tre for 6 h. The control group was prepared without incubation with 6-O-Ac-Tre. The cover slips were then washed with excess PBS and imaged using a Zeiss microscope with fluorescence capability.

[2] = tested on: rat hepatocytes; assay: Hepatocyte albumin secretion ELISA, 14-day follow-up after loading; assay type: cell-based; design: dose or concentration left out as unconfirmed
Procedure: The hepatocytes were seeded at 0.6×10^6 cell/well on the collagen gel in 12-well plates. Collagen gel was formed by the addition of 200 μL of collagen solution to each well and incubation for 20 min at 37°C. The cells were allowed to attach and spread at least 24 h before the experiments. […] After the collagen solution solidified, 0.5 mL of medium was added per well and the plate was incubated at 10% CO2 and 37°C. Every 24 h for 14 days, the medium from each well was separately collected and 0.5 mL fresh medium was added to each well. The collected samples were stored at -80°C freezer until analyzed.
Albumin secretion was assayed following an ELISA protocol developed in-house. Briefly, 96-well high-binding ELISA plates were coated with 5 μg/well rat albumin in 100 μL PBS and incubated overnight at 4 °C. Coated plates were washed with PBS-Tween (0.05%) at least 3 times and 50 μL of the media or standards were added to wells in the plate. Albumin antibody was diluted 1:10000 in PBS-tween and 50 μL was added to each well and incubated overnight at 4 °C. At the end of incubation, the plates were washed with PBS-0.05% Tween at least 3 times. A substrate solution of o-phenylenediamine dihydro-chloride (OPD, 400 μg/mL) and 4 μM H2O2 was prepared in a citric acid buffer. […] Reaction was stopped by addition of 50 μL 8N sulfuric acid and the difference in absorbance was measured at 490 nm.

CC(=O)OC1C(CO)OC(OC2OC(CO)C(OC(C)=O)C(OC(C)=O)C2OC(C)=O)C(OC(C)=O)C1OC(C)=O (centres unmarked) [6-O-Ac-Tre, trehalose hexaacetate]
mitochondrial ΔΨ versus control (Mito-Tracker Red, JC-1 ratio) [1]: no significant difference
albumin secretion versus control [2]: eventually increased to similar levels as the control group within 10 days
